According to ChEMBL document CHEMBL1146869 (Bioorg Med Chem Lett, 2006):
pIC50: −log10 of the molar value. Converted amounts (≈) assume the structure as drawn.

Assays:
[1] = system: Rattus norvegicus; assay: Anti-inflammatory activity against carrageenan-induced paw edema in Sprague-Dawley rat at 3 mg/kg, iv after 3 hrs; format: functional, organism-based; set-up: dose 3 mg/kg, route intravenous
[2] = system: Rattus norvegicus; assay: Gastric toxicity in rat at 20 mg/kg, iv; format: organism-based; set-up: dose 20 mg/kg, route intravenous; settings: in vivo
[3] = Aqueous solubility of the compound; format: physicochemical; settings: water
[4] = molecular target: T1, Prostaglandin G/H synthase 2 (Homo sapiens, UniProt P35354)
T1 sequence (P35354 whole entry): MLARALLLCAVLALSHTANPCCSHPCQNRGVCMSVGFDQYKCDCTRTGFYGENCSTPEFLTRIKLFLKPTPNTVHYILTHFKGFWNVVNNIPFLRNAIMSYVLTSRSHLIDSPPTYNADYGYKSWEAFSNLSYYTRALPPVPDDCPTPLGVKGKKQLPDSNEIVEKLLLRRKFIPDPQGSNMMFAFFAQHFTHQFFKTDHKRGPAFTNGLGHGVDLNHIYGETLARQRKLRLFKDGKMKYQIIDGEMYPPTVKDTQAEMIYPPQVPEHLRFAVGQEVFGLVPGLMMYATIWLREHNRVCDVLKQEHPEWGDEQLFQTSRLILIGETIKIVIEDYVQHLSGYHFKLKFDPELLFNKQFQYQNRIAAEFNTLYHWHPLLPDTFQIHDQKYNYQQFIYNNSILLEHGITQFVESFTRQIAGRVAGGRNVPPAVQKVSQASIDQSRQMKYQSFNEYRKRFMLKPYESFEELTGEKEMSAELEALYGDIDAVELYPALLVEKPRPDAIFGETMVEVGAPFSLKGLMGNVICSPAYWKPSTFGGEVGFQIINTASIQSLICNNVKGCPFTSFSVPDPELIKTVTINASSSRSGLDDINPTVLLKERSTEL

[5] = system: Rattus norvegicus; assay: Anti-inflammatory activity against carrageenan-induced paw edema in Sprague-Dawley rat at 3 mg/kg, iv after 5 hrs; format: functional, organism-based; set-up: dose 3 mg/kg, route intravenous
[6] = molecular target: T2, Prostaglandin G/H synthase 1 (Ovis aries, UniProt P05979); assay: Inhibition of COX1; set-up: species or system Homo sapiens
T2 sequence (P05979 whole entry): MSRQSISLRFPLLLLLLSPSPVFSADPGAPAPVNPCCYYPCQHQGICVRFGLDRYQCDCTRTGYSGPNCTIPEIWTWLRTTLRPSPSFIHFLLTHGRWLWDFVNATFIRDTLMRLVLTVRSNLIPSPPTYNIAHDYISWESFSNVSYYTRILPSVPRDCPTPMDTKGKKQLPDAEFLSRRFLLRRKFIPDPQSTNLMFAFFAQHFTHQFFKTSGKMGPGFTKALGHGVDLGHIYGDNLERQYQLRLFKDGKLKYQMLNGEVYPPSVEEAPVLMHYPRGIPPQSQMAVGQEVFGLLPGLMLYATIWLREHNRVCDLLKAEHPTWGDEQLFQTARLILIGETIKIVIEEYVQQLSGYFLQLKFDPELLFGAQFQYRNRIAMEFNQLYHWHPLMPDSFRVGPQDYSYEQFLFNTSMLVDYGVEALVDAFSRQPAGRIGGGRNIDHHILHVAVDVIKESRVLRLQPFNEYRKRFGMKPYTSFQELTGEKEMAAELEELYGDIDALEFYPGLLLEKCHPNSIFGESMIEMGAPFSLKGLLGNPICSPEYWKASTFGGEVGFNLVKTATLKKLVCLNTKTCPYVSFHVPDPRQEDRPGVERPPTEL

[7] = system: Rattus norvegicus; assay: Gastric toxicity in rat at 40 mg/kg, iv; format: organism-based; set-up: dose 40 mg/kg, route intravenous; settings: in vivo

## Cc1ccc(-c2cc(C(F)(F)F)nn2-c2ccc(-c3nnn[nH]3)cc2)cc1
[1]
  inhibition in vivo at 3 mg/kg: 40.2%
[2]
  Activity: Not Active
[3]
  solubility: 100 mg/mL (≈ 270 mM)
[4]
  pIC50: 8.72
[5]
  inhibition in vivo at 3 mg/kg: 34.7%
[6]
  pIC50: 8.39

## O=C1OCC(c2ccc(-c3nn[nH]n3)cc2)=C1c1ccccc1
[1]
  inhibition in vivo at 3 mg/kg: 34.1%
[2]
  Activity: Not Active
[3]
  solubility: 125 mg/mL (≈ 411 mM)
[4]
  pIC50: 8.74
[5]
  inhibition in vivo at 3 mg/kg: 28%
[6]
  pIC50: 8.42

## O=C([O-])Cc1ccccc1Nc1c(Cl)cccc1Cl.[Na+] [DICLOFENAC SODIUM]
[2]
  Activity: 22.8
[7]
  Activity: 51.5

## CCC(=O)[N-]S(=O)(=O)c1ccc(-c2c(-c3ccccc3)noc2C)cc1.[Na+] [PARECOXIB SODIUM]
[1]
  inhibition in vivo at 3 mg/kg: 62.8%
[5]
  inhibition in vivo at 3 mg/kg: 42%
[7]
  Activity: Not Active
